According to patent publication US20220354852A1, “TARGETING WNT SIGNALING FOR IMPROVED GLIOMA IMMUNOTHERAPY” (CITY OF HOPE, priority 2021, published 2022):

Tests used:
[1] = tested on: murine-derived glioma cell lines (K-luc, GL261-parental, and GL261.IL13Rα2 engineered); assay: ICG-001 single agent on murine-derived glioma cell lines (growth kinetics); type: cell-based, mouse; conditions: ICG-001 0-10 μM, 4 days
Description: FIG. 11. (A, B) Growth kinetics of human PBT glioma lines (PBT017, PBT030, PBT135, PBT144, and PBT147) treated with ICG-001 (0-10 μM) for 7 days and (C) mouse glioma cells (GL261, GL261-IL13, and K-luc) treated with ICG-001 (0-10 μM) for 4 days. Red boxes indicate PBT030 and PBT147 cell lines used for Nanostring and proteomics analysis. Scale bars represent S.D. of triplicate samples. (D-F) Growth kinetics of PBT017 (2,500 cells/well) treated with or without HER2-CAR T cells (500 cells/well) and with or without ICG-001 (0-5 μM). The red line is CAR T cell treatment only and the bottom three lines are with ICG-001. Experiment was done in quadruplicate and error bars indicate S.D.
ICG-001 activity in vitro in human and mouse glioma cell lines. Initially, the effects of the specific CBP/β-catenin antagonist ICG-001 was tested in vitro as a single agent on human and mouse glioma cell lines (5 PBT human and 3 mouse glioma lines).

[2] = tested on: T cells derived from 3 donors; assay: NanoString gene expression analysis of T cells treated with ICG-001; type: cell-based; conditions: ICG-001 2.5 or 5 μM
Description: FIG. 27. T cells treated with ICG001 2.5 and 5 μM for 24 or 72 h. (A) CAR Ts mock and HER2 from one donor and mock CARs derived from two additional donors were plated on 6-well format plates and treated with ICG001 at concentrations 0-5 μM for 24 or 72 h. Cells were collected from each well, counted, and viability was determined. (B, C) NanoString analysis of T cells treated with ICG-001 to determine concentration-dependent metabolic changes. […] (E) Correlation of differential gene expression in all T cell lines combined at concentration of 2.5 and 5 μM.
Antagonism of WNT/CBP/β-catenin signaling effects CAR T cells. Wnt signaling plays critical roles in T cell development and commitment (Li et al. 2019). Thus, the combined data derived from all T cell lines used and compared with untreated controls was analyzed for each T cell line.
However, at a higher concentration of ICG-001, a higher degree of differential gene expression was observed. […]

SMILES: O=C1[C@H](Cc2ccc(O)cc2)N2C(=O)CCN(C(=O)NCc3ccccc3)[C@H]2CN1Cc1cccc2ccccc12 [ICG-001]
- effect on cell growth (growth kinetics) [1]: concentration dependent cytostatic effect
- T cell differentiation [2]: directed T cell differentiation into multiple types of effector and memory T cells
- expression of DPP4, CD48, CEBPB, B2M, ICOSLG, CD81, CXCR4, XBP1, NFIL3, and others in T cells ([2]; 24 or 72 h): upregulation of key genes
